Assay results reported in the supplement of paper PMC10307832.

How the values were obtained:
Test in all cases: relative viability (nuclei count vs DMSO), 5 days (fraction); higher = more cells survive
AZD6482 + Navitoclax = compound: Cc1cc([C@@H](C)Nc2ccccc2C(=O)O)c2nc(N3CCOCC3)cc(=O)n2c1 [AZD6482] + CC1(C)CCC(c2ccc(Cl)cc2)=C(CN2CCN(c3ccc(C(=O)NS(=O)(=O)c4ccc(N[C@H](CCN5CCOCC5)CSc5ccccc5)c(S(=O)(=O)C(F)(F)F)c4)cc3)CC2)C1 [Navitoclax] (partner 0.5 µM)
Outline: (§1)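 A single step with final 0.05% Triton X-100, 1% formaldehyde and 1 ug/ml Hoechst fixed the cells and stained nuclei 5 days after treatment. Lung cancer cell lines in 1536-well plates had been treated by pin tool the day after seeding with one drug alone or a fixed anchor-drug dose plus five library-drug doses (not always all listed) in √10 steps, and nuclei were counted on 4× images. Relative viability is the ratio of nuclei in treated wells to nuclei in vehicle wells, taken as the median of duplicate plates.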

AZD6482 + Luminespib = compound: Cc1cc([C@@H](C)Nc2ccccc2C(=O)O)c2nc(N3CCOCC3)cc(=O)n2c1 [AZD6482] + CCNC(=O)c1noc(-c2cc(C(C)C)c(O)cc2O)c1-c1ccc(CN2CCOCC2)cc1 [Luminespib] (partner 0.01 µM)
Outline: as §1

AZD6482 + Dasatinib = compound: Cc1cc([C@@H](C)Nc2ccccc2C(=O)O)c2nc(N3CCOCC3)cc(=O)n2c1 [AZD6482] + Cc1nc(Nc2ncc(C(=O)Nc3c(C)cccc3Cl)s2)cc(N2CCN(CCO)CC2)n1 [Dasatinib] (partner 0.075 µM)
Outline: as §1

AZD6482 + AZD7762 = compound: Cc1cc([C@@H](C)Nc2ccccc2C(=O)O)c2nc(N3CCOCC3)cc(=O)n2c1 [AZD6482] + NC(=O)Nc1cc(-c2cccc(F)c2)sc1C(=O)N[C@H]1CCCNC1 [AZD7762] (partner 0.2 µM)
Outline: as §1

| Cell Line | relative viability (AZD6482 + Navitoclax; first compound 0.08 µM) | relative viability (AZD6482 + Navitoclax; first compound 0.253 µM) | relative viability (AZD6482 + Navitoclax; first compound 0.8 µM) | relative viability (AZD6482 + Navitoclax; first compound 2.53 µM) | relative viability (AZD6482 + Navitoclax; first compound 8 µM) | relative viability (AZD6482 + Luminespib; first compound 0.08 µM) | relative viability (AZD6482 + Luminespib; first compound 0.253 µM) | relative viability (AZD6482 + Luminespib; first compound 0.8 µM) | relative viability (AZD6482 + Luminespib; first compound 2.53 µM) | relative viability (AZD6482 + Luminespib; first compound 8 µM) | relative viability (AZD6482 + Dasatinib; first compound 0.08 µM) | relative viability (AZD6482 + Dasatinib; first compound 0.253 µM) | relative viability (AZD6482 + Dasatinib; first compound 0.8 µM) | relative viability (AZD6482 + Dasatinib; first compound 2.53 µM) | relative viability (AZD6482 + Dasatinib; first compound 8 µM) | relative viability (AZD6482 + AZD7762; first compound 0.08 µM) | relative viability (AZD6482 + AZD7762; first compound 0.253 µM) | relative viability (AZD6482 + AZD7762; first compound 0.8 µM) | relative viability (AZD6482 + AZD7762; first compound 2.53 µM) | relative viability (AZD6482 + AZD7762; first compound 8 µM) |
| --- | --- | --- | --- | --- | --- | --- | --- | --- | --- | --- | --- | --- | --- | --- | --- | --- | --- | --- | --- | --- |
| A549 | 1.07 | 1.25 | 1.06 | 0.607 | 0.961 | – | – | – | – | – | – | – | – | – | – | – | – | – | – | – |
| ABC-1 | – | – | – | – | – | 0.668 | 0.521 | 0.438 | 0.55 | 0.461 | 0.5 | 0.591 | 0.699 | 0.496 | 0.53 | 0.825 | 0.892 | 0.695 | 0.772 | 0.638 |
| COR-L23 | 0.711 | 1.02 | 1.23 | 0.756 | 0.857 | 0.635 | 0.688 | 0.768 | 0.519 | 0.636 | 0.338 | 0.374 | 0.47 | 0.292 | 0.326 | – | – | – | – | – |
| COR-L 105 | 0.78 | 0.648 | 0.747 | 0.521 | 0.633 | 0.75 | 0.867 | 1.04 | 0.46 | 0.663 | 0.287 | 0.318 | 0.325 | 0.262 | 0.273 | – | – | – | – | – |
| Calu-6 | 0.662 | 0.699 | 0.754 | 0.57 | 0.602 | – | – | – | – | – | – | – | – | – | – | – | – | – | – | – |
| EBC-1 | 0.273 | 0.318 | 0.322 | 0.191 | 0.241 | – | – | – | – | – | – | – | – | – | – | – | – | – | – | – |
| IA-LM | 0.859 | 0.979 | 0.977 | 0.618 | 0.744 | – | – | – | – | – | – | – | – | – | – | – | – | – | – | – |
| LCLC-103H | – | – | – | – | – | 0.741 | 0.751 | 0.804 | 0.602 | 0.64 | 0.361 | 0.359 | 0.224 | 0.251 | 0.225 | 0.626 | 0.721 | 0.619 | 0.579 | 0.562 |
| NCI-H358 | – | – | – | – | – | 0.422 | 0.485 | 0.338 | 0.173 | 0.199 | 0.151 | 0.186 | 0.132 | 0.0881 | 0.153 | 0.545 | 0.487 | 0.549 | 0.302 | 0.439 |
| NCI-H520 | 0.839 | 0.785 | 0.703 | – | 0.344 | 0.208 | 0.281 | 0.199 | 0.206 | 0.211 | 0.154 | 0.153 | 0.138 | 0.144 | 0.166 | – | – | – | – | – |
| NCI-H522 | – | – | – | – | – | 1.22 | 1.07 | 0.879 | 0.946 | 0.88 | 0.832 | 0.783 | 0.879 | 0.974 | 0.747 | 0.764 | 0.73 | 0.803 | 0.762 | 0.664 |
| NCI-H650 | – | – | – | – | – | 0.657 | – | 0.898 | 0.647 | 0.509 | 0.446 | – | 0.453 | 0.292 | 0.319 | 1.06 | 0.918 | 1.12 | 0.77 | 0.619 |
| NCI-H661 | – | – | – | – | – | 0.959 | 0.945 | 0.968 | 0.635 | 0.918 | 0.75 | 0.857 | 0.967 | 0.502 | 0.489 | – | – | – | – | – |
| NCI-H1299 | 0.982 | 1.04 | 1.1 | 0.917 | 1.04 | – | – | – | – | – | – | – | – | – | – | – | – | – | – | – |
| NCI-H1563 | – | – | – | – | – | 0.504 | 0.541 | 0.584 | 0.478 | 0.522 | 0.487 | 0.479 | 0.442 | 0.449 | 0.465 | – | – | – | – | – |
| NCI-H1623 | – | – | – | – | – | 0.48 | 0.402 | 0.472 | 0.45 | 0.413 | 0.521 | 0.524 | 0.457 | 0.426 | 0.395 | – | – | – | – | – |
| NCI-H1648 | – | – | – | – | – | – | – | – | – | – | – | – | – | – | – | 0.708 | 0.674 | 0.872 | – | 0.6 |
| NCI-H1650 | 0.873 | – | 0.747 | 0.702 | 0.819 | 0.182 | 0.189 | 0.204 | 0.186 | 0.194 | 0.224 | 0.278 | 0.316 | 0.234 | 0.318 | – | – | – | – | – |
| NCI-H2009 | 1.11 | 1.14 | 1.23 | 0.757 | 0.96 | 1.04 | 1.11 | 1.08 | 0.771 | 0.963 | 0.2 | 0.232 | 0.218 | 0.165 | 0.183 | – | – | – | – | – |
| NCI-H2023 | 0.891 | 0.999 | 0.803 | 0.615 | 0.621 | 0.603 | 0.574 | 0.795 | 0.518 | 0.324 | 0.454 | 0.494 | 0.566 | 0.3 | 0.423 | – | – | – | – | – |
| NCI-H2228 | 0.738 | 0.963 | 0.803 | 0.634 | 0.616 | – | 0.119 | 0.118 | 0.115 | 0.169 | – | 0.367 | 0.461 | 0.427 | 0.455 | – | – | – | – | – |
| NCI-H2342 | – | – | – | – | – | 0.67 | 0.54 | 0.504 | 0.391 | 0.608 | 0.301 | 0.292 | 0.34 | 0.277 | 0.31 | 0.532 | 0.352 | 0.567 | 0.337 | 0.374 |
| SK-LU-1 | – | 0.74 | 1.04 | 0.834 | 0.93 | – | 0.189 | 0.203 | 0.145 | 0.168 | – | 0.165 | 0.18 | 0.152 | 0.165 | – | – | – | – | – |
| SK-MES-1 | 1.08 | 1.17 | 0.923 | 0.493 | 0.572 | 0.416 | 0.556 | 0.313 | 0.269 | 0.304 | 0.179 | 0.235 | 0.169 | 0.125 | 0.168 | – | – | – | – | – |
| SW 1573 | 0.887 | 0.86 | 0.941 | 0.56 | 0.653 | 0.218 | 0.219 | 0.246 | 0.194 | 0.206 | 0.459 | 0.357 | 0.328 | 0.239 | 0.206 | – | – | – | – | – |
